Laboratory results from patent publication US10406166B2, “Antimicrobial compound” (priority 2015, dated 2019).
Where two headings read alike, the source gives them in different places.

What was measured:
[1] = aqueous; cited from earlier work
Bacillus subtilis = assay: Antimicrobial susceptibility (MIC, agar dilution); assay type: cell-based; settings: Isosensitest agar, 128-1 μg/mL, 37° C. for 24 h
Method: (§1) For each putative antimicrobial, determination of the antimicrobial susceptibility was performed in strict accordance with the recommendations of the British Society for Antimicrobial Chemotherapy. Isosensitest agar (Oxoid) was prepared according to the manufacturer's instructions and sterilized by autoclaving at 116° C. for 20 min. This was then cooled to 50° C. in a waterbath. A 10 mg sample of each antimicrobial was dissolved in 1 mL DMSO. A 256 μL aliquot was added to 19.744 mL of molten Isosensitest agar at 50° C. and mixed well. This was poured into a Petri dish to produce a culture plate containing a final concentration of 128 μg/mL. Smaller volumes of solution (ranging from 128-2 μL) were also incorporated into agar plates in similar fashion to produce a final concentration range of 128-1 μg/mL. A set of control plates was prepared containing DMSO at an identical concentration range without antimicrobial.
(§2) A panel of microorganisms was obtained from the National Collection of Type Cultures (NCTC), Colindale, UK, the National Collection of Pathogenic Fungi (NCPF), Colindale, UK, and the American Type Culture Collection (ATCC), Manassas, Va. USA. The panel included a range of pathogenic species and comprised Bacillus subtillis, Listeria monocytogenes, Staphyloccci epidermidis, Staphylococcus aureus, Staphylococcus aureus (MRSA) and Streptococcis pyogenes, all of which are Gram-positive bacteria. Each strain was cultured onto Columbia agar (Oxoid) and incubated overnight at 37° C. Colonies were then suspended in sterile distilled water (SDW) to produce a suspension of 1.5×10^8 colony forming units CFU/mL using a densitometer. This suspension was then diluted 1/15 in SDW and 1 μL was inoculated onto all test media using a semi-automated multipoint inoculator (final inoculum: 10 000 CFU per spot). All media were incubated at 37° C. for 24 h and examined for the presence of growth. […] All tests were repeated on a separate occasion to ensure reproducibility.
(§3) Determination of the antimicrobial susceptibility of the samples containing the isolated R and S enantiomers was performed as set out in Example 2.

Listeria monocytogenes = assay: Antimicrobial susceptibility (MIC, agar dilution); assay type: cell-based; settings: Isosensitest agar, 128-1 μg/mL, 37° C. for 24 h
Method: as §1, §2, §3

Staphyloccci epidermidis = assay: Antimicrobial susceptibility (MIC, agar dilution); assay type: cell-based; settings: Isosensitest agar, 128-1 μg/mL, 37° C. for 24 h
Method: as §1, §2, §3

[2] = system: Staphylococcus aureus (MRSA); assay: Antimicrobial susceptibility (MIC, agar dilution); assay type: cell-based; settings: Isosensitest agar, 128-1 μg/mL, 37° C. for 24 h
Method: as §1, §2, §3

Staphylococcus aureus = assay: Antimicrobial susceptibility (MIC, agar dilution); assay type: cell-based; settings: Isosensitest agar, 128-1 μg/mL, 37° C. for 24 h
Method: as §1, §2, §3

Streptococcis pyogenes = assay: Antimicrobial susceptibility (MIC, agar dilution); assay type: cell-based; settings: Isosensitest agar, 128-1 μg/mL, 37° C. for 24 h
Method: as §1, §2, §3

Cell cytotoxicity CC50 = assay type: cell-based; settings: human, 6-8 days, top concentration 100 μM, read-out: CC50 (concentration at which 50% cell toxicity is observed)
From the text: (§4) Notes Cell obtained from ATCC and virus prep was subjected to one round of centrifugation through a 40% (V/V) glycerol to remove any interferon produced from infected cells. Growth medium was Dulbecco's modified Eagle's medium (DMEM) with 10% (v/v) foetal calf serum (FCS), Viral maintenance medium was DMEM+2% (v/v) FCS
Cell Cytotoxicity—CC50 (concentration at which 50% cell toxicity is observed):
A549 cells and HeLa cells were used to seed a set of 96 well plates grown until 50% confluent, a 2 fold serial dilution of 5-Phenyl-S-3-amino-2,3-dihydro-1H-1,4-benzodiazepin-2-one (5) was performed on each cell line with DMSO (only) as control starting with 100 μM of 5-Phenyl-S-3-amino-2,3-dihydro-1H-1,4-benzodiazepin-2-one (5). Medium used was DMEM+2% FCS (normal medium for viral growth).
Cells were allowed to grow for 6-8 days to mimic a TCID50 assay after which cell viability was determined by adding Almar blur (similar to XTT) and reading at 600 nm (excitation 540 nm). No significant difference was observed between cells treated with 5-Phenyl-S-3-amino-2,3-dihydro-1H-1,4-benzodiazepin-2-one (5) and the DMSO control. No significant difference was observed between HeLa and A549 cells.

RSV A2 strain = assay: Infected cell viability assay (A549 only); assay type: cell-based, Human RSV (Respiratory Syncytial Virus); settings: human respiratory syncytial virus, moi 0.1, 8 days
Method: as §4
96 wells plates were set up as previously described. As before a 2 fold serial dilution of 5-Phenyl-S-3-amino-2,3-dihydro-1H-1,4-benzodiazepin-2-one (5) was added prior to addition of virus at a multiplicity of infection (moi) of 0.1, as determined by a plaque assay, in a volume of 50 μl (starting conc 100 μM). After incubating for 4 hours RSV A2 strain was added at an moi of 0.1 maintaining the concentration of 5-Phenyl-S-3-amino-2,3-dihydro-1H-1,4-benzodiazepin-2-one (5). As before, DMSO was the control. The final lane was a mock infected minus 5-Phenyl-S-3-amino-2,3-dihydro-1H-1,4-benzodiazepin-2-one (5) to show viability of cells after 8 days incubation.
Every two days for up to 8 days the media plus drug was replaced to maintain activity, after 8 days cell viability was assayed by cell staining with methylene blue. Each experiment was performed twice with similar results, see FIG. 14.
An alternative experiment was set up as before except virus, at an moi of 0.1, was added before the drug and allowed to incubate for 4 hours. […]

RSV = assay: Plaque reduction assay; assay type: cell-based, Human RSV (Respiratory Syncytial Virus); settings: A549, 10 μM added 3-4 hours before RSV; control titre 4.5×10^5
Method: as §4
A549 cells were seeded into a T25 flask and grown until 60-70% confluent. To one set of flasks (n=3) 5-Phenyl-S-3-amino-2,3-dihydro-1H-1,4-benzodiazepin-2-one (5) in DMSO was added at a concentration of 10 μM and allowed to incubate for 3-4 hours before the addition of RSV at an […] and incubated until extensive cytopathic effect (cpe) was evident, usually after 3 days. The concentration of 5-Phenyl-S-3-amino-2,3-dihydro-1H-1,4-benzodiazepin-2-one (5) was kept constant by replacing the medium each day (RSV is largely cell associated). After which virus was harvested by homogenising the cells in a final volume of 1 ml. The viral titre was determined by plaque assay and staining after 8 days. A control assay was conducted using DMSO in place of the DMSO solution of 5-Phenyl-S-3-amino-2,3-dihydro-1H-1,4-benzodiazepin-2-one (5). […]

Compound: O=c1n(-c2c(F)c(F)nc(F)c2F)c2ccccc2n1-c1c(F)c(F)nc(F)c1F
- melting point: 154.9 to 156 °C

Compound: O=C1Nc2ccc(Cl)cc2C(c2ccccc2Cl)=NC1O (centres unmarked) [Lorazepam]
- pKa [1]: ~13.0

Compound: O=C1C(=O)N(c2c(F)c(F)nc(F)c2F)c2ccccc21
- melting point: 160.3 to 162.6 °C

Compound: O=C1Nc2ccccc2C(c2ccccc2)=NC1Nc1c(F)c(F)nc(F)c1F (racemic) [Compound 5, 5-Phenyl-3-[(tetrafluoropyridin-4-yl)amino]-2,3-dihydro-1H-1,4-benzodiazepin-2-one]
- antibacterial activity (by minimum inhibitory concentration) (Bacillus subtilis): not
- antibacterial activity (by minimum inhibitory concentration) (Listeria monocytogenes): exhibited antibacterial activity
- antibacterial activity (by minimum inhibitory concentration) (Listeria monocytogenes; listed as racemate): effective
- antibacterial activity (by minimum inhibitory concentration) (Staphyloccci epidermidis): exhibited antibacterial activity
- antibacterial activity (by minimum inhibitory concentration) (Staphyloccci epidermidis; listed as racemate): effective
- antibacterial activity (by minimum inhibitory concentration) [2]: exhibited antibacterial activity
- antibacterial activity (by minimum inhibitory concentration) ([2]; listed as racemate): effective
- antibacterial activity (by minimum inhibitory concentration) (Staphylococcus aureus): exhibited antibacterial activity
- antibacterial activity (by minimum inhibitory concentration) (Staphylococcus aureus; listed as racemate): effective
- antibacterial activity (by minimum inhibitory concentration) (Streptococcis pyogenes): exhibited antibacterial activity
- antibacterial activity (by minimum inhibitory concentration) (Streptococcis pyogenes; listed as racemate): effective
- CC50 (Cell cytotoxicity CC50; A549 cells): ≥ 100 µM
- CC50 (Cell cytotoxicity CC50; HeLa cells): ≥ 100 µM
- EC50 (RSV A2 strain; A549, compound added 4 hours before virus, Reed and Meunch, read-out: half maximal effective concentration (EC50)): 2.4 µM
- EC50 (RSV A2 strain; A549, virus added 4 hours before the drug, Reed & Meunch, read-out: EC50): ~3 µM
- viral titre after exposure (RSV): 2.3×10^3 viral infectivity units

Compound: O=C1Nc2ccccc2C(c2ccccc2)=N[C@@H]1Nc1c(F)c(F)nc(F)c1F (single isomer, unassigned; enantiomer 5) [S enantiomer, 5-Phenyl-S-3-[(tetrafluoropyridin-4-yl)amino]-2,3-dihydro-1H-1,4-benzodiazepin-2-one]
- antibacterial activity (by minimum inhibitory concentration) (Bacillus subtilis): effective
- antibacterial activity (by minimum inhibitory concentration) (Listeria monocytogenes): effective
- antibacterial activity (by minimum inhibitory concentration) (Staphyloccci epidermidis): effective
- antibacterial activity (by minimum inhibitory concentration) [2]: effective
- antibacterial activity (by minimum inhibitory concentration) (Staphylococcus aureus): effective
- antibacterial activity (by minimum inhibitory concentration) (Streptococcis pyogenes): effective

Compound: COC(=O)CNc1c(F)c(F)nc(F)c1F
- melting point: 67.8 to 68.7 °C

Compound: O=C1Nc2ccccc2C(c2ccccc2)=N[C@H]1Nc1c(F)c(F)nc(F)c1F [R enantiomer, 5-Phenyl-R-3-[(tetrafluoropyridin-4-yl)amino]-2,3-dihydro-1H-1,4-benzodiazepin-2-one]
- antibacterial activity (by minimum inhibitory concentration) (Staphyloccci epidermidis): effective
- antibacterial activity (by minimum inhibitory concentration) [2]: effective
- antibacterial activity (by minimum inhibitory concentration) (Staphylococcus aureus): effective
